Assay results published in the supplement of paper PMC11061612.

Assays:
MK-2206 = compound: NC1(c2ccc(-c3nc4ccn5c(=O)[nH]nc5c4cc3-c3ccccc3)cc2)CCC1 [MK-2206]; details: max 10 µM
Method in brief: (§1)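 Viability was measured with CellTiter-Glo 2.0 luminescence after 72 hours of dosing at a final DMSO of typically 0.2%, and scaled between blank-well and DMSO-well means. Beforehand, cancer cell lines sat 24 hours at 37°C and 5% CO2 in 1536-well plates in 7.5 μl DMEM/F12 or RPMI with 10% FBS. A non-linear mixed effects model fitted two-parameter logistic curves to the dose responses. The single-agent IC50 comes from these fits.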

AZD2811 = compound: CCN(CCO)CCCOc1ccc2c(Nc3cc(CC(=O)Nc4cccc(F)c4)[nH]n3)ncnc2c1 [AZD2811]; details: max 1 µM
Method in brief: as §1

AZD5991 = compound: Cc1c2c(nn1C)CSCc1cc(n(C)n1)CSc1cc(c3ccccc3c1)OCCCc1c(C(=O)O)n(C)c3c-2c(Cl)ccc13 [AZD5991]; details: max 1 µM
Method in brief: as §1

Gefitinib = compound: COc1cc2ncnc(Nc3ccc(F)c(Cl)c3)c2cc1OCCCN1CCOCC1 [Gefitinib]; details: max 10 µM
Method in brief: as §1

AZD5153 = compound: COc1nnc2ccc(N3CCC(c4ccc(OCCN5CCN(C)C(=O)[C@H]5C)cc4)CC3)nn12 [AZD5153]; details: max 1 µM
Method in brief: as §1

SN-38 = compound: CCc1c2c(nc3ccc(O)cc13)-c1cc3c(c(=O)n1C2)COC(=O)[C@]3(O)CC [SN-38]; details: max 0.3 µM
Method in brief: as §1

Lapatinib = compound: CS(=O)(=O)CCNCc1ccc(-c2ccc3ncnc(Nc4ccc(OCc5cccc(F)c5)c(Cl)c4)c3c2)o1 [Lapatinib]; details: max 10 µM
Method in brief: as §1

Prexasertib = compound: COc1cccc(OCCCN)c1-c1cc(Nc2cnc(C#N)cn2)n[nH]1 [Prexasertib]; details: max 1 µM
Method in brief: as §1

Doxorubicin = compound: COc1cccc2c1C(=O)c1c(O)c3c(c(O)c1C2=O)C[C@@](O)(C(=O)CO)C[C@@H]3O[C@H]1C[C@H](N)[C@H](O)[C@H](C)O1 [Doxorubicin]; details: max 1 µM
Method in brief: as §1

AZD7648 = compound: Cc1cc2ncnn2cc1Nc1ncc2c(n1)n(C1CCOCC1)c(=O)n2C [AZD7648]; details: max 10 µM
Method in brief: as §1

Venetoclax = compound: CC1(C)CCC(CN2CCN(c3ccc(C(=O)NS(=O)(=O)c4ccc(NCC5CCOCC5)c([N+](=O)[O-])c4)c(Oc4cnc5[nH]ccc5c4)c3)CC2)=C(c2ccc(Cl)cc2)C1 [Venetoclax]; details: max 1 µM
Method in brief: as §1

Dasatinib = compound: CC1=C(C(=CC=C1)Cl)NC(=O)C2=CN=C(S2)NC3=CC(=NC(=N3)C)N4CCN(CC4)CCO [Dasatinib]; details: max 2 µM
Method in brief: as §1

Crizotinib = compound: C[C@@H](Oc1cc(-c2cnn(C3CCNCC3)c2)cnc1N)c1c(Cl)ccc(F)c1Cl [Crizotinib]; details: max 10 µM
Method in brief: as §1

Capivasertib = compound: C1CN(CCC1(C(=O)N[C@@H](CCO)C2=CC=C(C=C2)Cl)N)C3=NC=NC4=C3C=CN4 [Capivasertib]; details: max 10 µM
Method in brief: as §1

AZD6738 = compound: C[C@@H]1COCCN1C2=NC(=NC(=C2)C3(CC3)[S@](=N)(=O)C)C4=C5C=CNC5=NC=C4 [AZD6738]; details: max 10 µM
Method in brief: as §1

Taselisib = compound: Cc1nc(-c2cn3c(n2)-c2ccc(-c4cnn(C(C)(C)C(N)=O)c4)cc2OCC3)n(C(C)C)n1 [Taselisib]; details: max 10 µM
Method in brief: as §1

AZD4320 = compound: CN(CC[C@H](CSC1=CC=CC=C1)NC2=C(C=C(C=C2)S(=O)(=O)NC(=O)C3=CC=C(C=C3)N4CCC(CC4)[C@H](C5=CC=CC=C5C6=CC=C(C=C6)Cl)O)S(=O)(=O)C(F)(F)F)CCO [AZD4320]; details: max 1 µM
Method in brief: as §1

AZD0156 = compound: CN(C)CCCOc1ccc(-c2ccc3ncc4c(c3c2)n(C2CCOCC2)c(=O)n4C)cn1 [AZD0156]; details: max 3 µM
Method in brief: as §1

Savolitinib = compound: C[C@@H](c1ccc2nccn2c1)n1nnc2ncc(-c3cnn(C)c3)nc21 [Savolitinib]; details: max 1 µM
Method in brief: as §1

Selumetinib = compound: Cn1cnc2c(F)c(Nc3ccc(Br)cc3Cl)c(C(=O)NOCCO)cc21 [Selumetinib]; details: max 10 µM
Method in brief: as §1

Alisertib = compound: COc1cc(Nc2ncc3c(n2)-c2ccc(Cl)cc2C(c2c(F)cccc2OC)=NC3)ccc1C(=O)O [Alisertib]; details: max 10 µM
Method in brief: as §1

SG3199 = compound: CC1=CN2[C@@H](C1)C=NC3=CC(=C(C=C3C2=O)OC)OCCCCCOC4=C(C=C5C(=C4)N=C[C@@H]6CC(=CN6C5=O)C)OC [SG3199]; details: max 0.001 µM
Method in brief: as §1

AZD1390 = compound: CC(C)n1c(=O)n(C)c2cnc3cc(F)c(-c4ccc(OCCCN5CCCCC5)nc4)cc3c21 [AZD1390]; details: max 0.3 µM
Method in brief: as §1

Trametinib = compound: CC(=O)Nc1cccc(-n2c(=O)n(C3CC3)c(=O)c3c(Nc4ccc(I)cc4F)n(C)c(=O)c(C)c32)c1 [Trametinib]; details: max 1 µM
Method in brief: as §1

Palbociclib = compound: CC(=O)c1c(C)c2cnc(Nc3ccc(N4CCNCC4)cn3)nc2n(C2CCCC2)c1=O [Palbociclib]; details: max 10 µM
Method in brief: as §1

AZD8186 = compound: C[C@@H](Nc1cc(F)cc(F)c1)c1cc(C(=O)N(C)C)cc2c(=O)cc(N3CCOCC3)oc12 [AZD8186]; details: max 3 µM
Method in brief: as §1

AZD1775 = compound: C=CCn1c(=O)c2cnc(Nc3ccc(N4CCN(C)CC4)cc3)nc2n1-c1cccc(C(C)(C)O)n1 [AZD1775]; details: max 3 µM
Method in brief: as §1

Olaparib = compound: O=C(c1cc(Cc2n[nH]c(=O)c3ccccc23)ccc1F)N1CCN(C(=O)C2CC2)CC1 [Olaparib]; details: max 10 µM
Method in brief: as §1

## ASH-3 (Thyroid Gland Carcinoma)
MK-2206
  IC50, cell viability 72 h: > 10000 nM
AZD2811
  IC50, cell viability 72 h: > 1000 nM
AZD5991
  IC50, cell viability 72 h: > 1000 nM
Gefitinib
  IC50, cell viability 72 h: > 10000 nM
AZD5153
  IC50, cell viability 72 h: 283 nM
SN-38
  IC50, cell viability 72 h: 28.8 nM
Lapatinib
  IC50, cell viability 72 h: > 10000 nM
Prexasertib
  IC50, cell viability 72 h: 569 nM
Doxorubicin
  IC50, cell viability 72 h: 688 nM
AZD7648
  IC50, cell viability 72 h: > 10000 nM
Venetoclax
  IC50, cell viability 72 h: > 1000 nM
Dasatinib
  IC50, cell viability 72 h: 1240 nM
Crizotinib
  IC50, cell viability 72 h: > 10000 nM
Capivasertib
  IC50, cell viability 72 h: > 10000 nM
AZD6738
  IC50, cell viability 72 h: > 10000 nM
Taselisib
  IC50, cell viability 72 h: 6860 nM
AZD4320
  IC50, cell viability 72 h: > 1000 nM
AZD0156
  IC50, cell viability 72 h: > 3000 nM
Savolitinib
  IC50, cell viability 72 h: > 1000 nM
Selumetinib
  IC50, cell viability 72 h: > 10000 nM
Alisertib
  IC50, cell viability 72 h: > 10000 nM
SG3199
  IC50, cell viability 72 h: > 1 nM
AZD1390
  IC50, cell viability 72 h: > 300 nM
Trametinib
  IC50, cell viability 72 h: > 1000 nM
Palbociclib
  IC50, cell viability 72 h: > 10000 nM
AZD8186
  IC50, cell viability 72 h: > 3000 nM
AZD1775
  IC50, cell viability 72 h: > 3000 nM
Olaparib
  IC50, cell viability 72 h: > 10000 nM

## KU-19-19 (Bladder Carcinoma)
MK-2206
  IC50, cell viability 72 h: > 10000 nM
AZD2811
  IC50, cell viability 72 h: > 1000 nM
AZD5991
  IC50, cell viability 72 h: > 1000 nM
Gefitinib
  IC50, cell viability 72 h: > 10000 nM
AZD5153
  IC50, cell viability 72 h: 117 nM
SN-38
  IC50, cell viability 72 h: 41.6 nM
Lapatinib
  IC50, cell viability 72 h: > 10000 nM
Prexasertib
  IC50, cell viability 72 h: 36.1 nM
Doxorubicin
  IC50, cell viability 72 h: 447 nM
AZD7648
  IC50, cell viability 72 h: > 10000 nM
Venetoclax
  IC50, cell viability 72 h: > 1000 nM
Dasatinib
  IC50, cell viability 72 h: 711 nM
Crizotinib
  IC50, cell viability 72 h: > 10000 nM
Capivasertib
  IC50, cell viability 72 h: > 10000 nM
AZD6738
  IC50, cell viability 72 h: 2160 nM
Taselisib
  IC50, cell viability 72 h: > 10000 nM
AZD4320
  IC50, cell viability 72 h: > 1000 nM
AZD0156
  IC50, cell viability 72 h: > 3000 nM
Savolitinib
  IC50, cell viability 72 h: > 1000 nM
Selumetinib
  IC50, cell viability 72 h: 678 nM
Alisertib
  IC50, cell viability 72 h: 5630 nM
SG3199
  IC50, cell viability 72 h: > 1 nM
AZD1390
  IC50, cell viability 72 h: > 300 nM
Trametinib
  IC50, cell viability 72 h: 6.44 nM
Palbociclib
  IC50, cell viability 72 h: > 10000 nM
AZD8186
  IC50, cell viability 72 h: > 3000 nM
AZD1775
  IC50, cell viability 72 h: 462 nM
Olaparib
  IC50, cell viability 72 h: > 10000 nM

## KYSE-50 (Esophageal Squamous Cell Carcinoma)
AZD2811
  IC50, cell viability 72 h: > 1000 nM
AZD5991
  IC50, cell viability 72 h: > 1000 nM
Gefitinib
  IC50, cell viability 72 h: > 10000 nM
AZD5153
  IC50, cell viability 72 h: 664 nM
SN-38
  IC50, cell viability 72 h: > 300 nM
Lapatinib
  IC50, cell viability 72 h: > 10000 nM
Prexasertib
  IC50, cell viability 72 h: 108 nM
Doxorubicin
  IC50, cell viability 72 h: > 1000 nM
AZD7648
  IC50, cell viability 72 h: > 10000 nM
Venetoclax
  IC50, cell viability 72 h: > 1000 nM
Dasatinib
  IC50, cell viability 72 h: 263 nM
Crizotinib
  IC50, cell viability 72 h: > 10000 nM
Capivasertib
  IC50, cell viability 72 h: > 10000 nM
AZD6738
  IC50, cell viability 72 h: 8940 nM
Taselisib
  IC50, cell viability 72 h: 8390 nM
AZD4320
  IC50, cell viability 72 h: > 1000 nM
AZD0156
  IC50, cell viability 72 h: > 3000 nM
Savolitinib
  IC50, cell viability 72 h: > 1000 nM
Selumetinib
  IC50, cell viability 72 h: > 10000 nM
Alisertib
  IC50, cell viability 72 h: 3860 nM
SG3199
  IC50, cell viability 72 h: > 1 nM
AZD1390
  IC50, cell viability 72 h: > 300 nM
Trametinib
  IC50, cell viability 72 h: > 1000 nM
Palbociclib
  IC50, cell viability 72 h: > 10000 nM
AZD8186
  IC50, cell viability 72 h: > 3000 nM
AZD1775
  IC50, cell viability 72 h: 1820 nM
Olaparib
  IC50, cell viability 72 h: > 10000 nM
